# Tested on: rabbits
# Assay: Tissue proton T1 and T2 relaxation times 15 min after intravenous administration (dose-response)
# Format: in vivo
# Details: for T1 relaxation time / T2 relaxation time: 10 mHz RADX; for effect on hepatic and biliary T1 relaxation times: intravenous administration
# Procedure: All experiments employing the complex dihydrogen bis(N-[N′-(2,6-dimethylphenyl)carbamoylmethyl]iminodiaceto)manganese (II) trihydrate were conducted following intravenous administration to rabbits. A 10 mM solution of the complex was used in these studies. Rabbits were anesthetized with ketamine/xylazine prior to treatment. The results given were obtained with a 10 mHz RADX proton spin analyzer.
# Dose-response experiments were conducted on rabbits following intravenous injection of 0.01-0.10 mmol of the complex/kg. […]
# [1] = 0.01-0.10 mmol/kg i.v., rabbits, 15 min
# [2] = Bladder, 15 min after 0.01 mmol/kg i.v., rabbits
# [3] = Bladder, 15 min after 0.03 mmol/kg i.v., rabbits
# [4] = Bladder, 15 min after 0.08 mmol/kg i.v., rabbits
# [5] = Bladder, 15 min after 0.10 mmol/kg i.v., 1 rabbit
# [6] = Blood, 5 min, 0.01 mmol/kg i.v., rabbits
# [7] = Blood, 5 min, 0.03 mmol/kg i.v., rabbits
# [8] = Blood, 5 min, 0.08 mmol/kg i.v., rabbits
# [9] = Blood, 5 min, 0.10 mmol/kg i.v., 1 rabbit
# [10] = Blood, 10 min, 0.01 mmol/kg i.v., rabbits
# [11] = Blood, 10 min, 0.03 mmol/kg i.v., rabbits
# [12] = Blood, 10 min, 0.08 mmol/kg i.v., rabbits
# [13] = Blood, 10 min, 0.10 mmol/kg i.v., 1 rabbit
# [14] = Blood, 15 min, 0.01 mmol/kg i.v., rabbits
# [15] = Blood, 15 min, 0.03 mmol/kg i.v., rabbits
# [16] = Blood, 15 min, 0.08 mmol/kg i.v., rabbits
# [17] = Fat, 15 min after 0.01 mmol/kg i.v., rabbits
# [18] = Fat, 15 min after 0.03 mmol/kg i.v., rabbits
# [19] = Fat, 15 min after 0.08 mmol/kg i.v., rabbits
# [20] = Fat, 15 min after 0.10 mmol/kg i.v., 1 rabbit
# [21] = Heart, 15 min after 0.01 mmol/kg i.v., rabbits
# [22] = Heart, 15 min after 0.03 mmol/kg i.v., rabbits
# [23] = Heart, 15 min after 0.08 mmol/kg i.v., rabbits
# [24] = Heart, 15 min after 0.10 mmol/kg i.v., 1 rabbit
# [25] = Large Intestine, 15 min after 0.01 mmol/kg i.v., rabbits
# [26] = Large Intestine, 15 min after 0.03 mmol/kg i.v., rabbits
# [27] = Large Intestine, 15 min after 0.08 mmol/kg i.v., rabbits
# [28] = Large Intestine, 15 min after 0.10 mmol/kg i.v., 1 rabbit
# [29] = Large Intestine, rabbits, 15 min
# [30] = Liver, 15 min after 0.01 mmol/kg i.v., rabbits
# [31] = Liver, 15 min after 0.03 mmol/kg i.v., rabbits
# [32] = Liver, 15 min after 0.08 mmol/kg i.v., rabbits
# [33] = Liver, 15 min after 0.10 mmol/kg i.v., 1 rabbit
# [34] = Lung, 15 min after 0.01 mmol/kg i.v., rabbits
# [35] = Lung, 15 min after 0.03 mmol/kg i.v., rabbits
# [36] = Lung, 15 min after 0.08 mmol/kg i.v., rabbits
# [37] = Lung, 15 min after 0.10 mmol/kg i.v., 1 rabbit
# [38] = Pancreas, 15 min after 0.01 mmol/kg i.v., rabbits
# [39] = Pancreas, 15 min after 0.03 mmol/kg i.v., rabbits
# [40] = Pancreas, 15 min after 0.08 mmol/kg i.v., rabbits
# [41] = Pancreas, 15 min after 0.10 mmol/kg i.v., 1 rabbit
# [42] = Renal Cortex, 15 min after 0.01 mmol/kg i.v., rabbits
# [43] = Renal Cortex, 15 min after 0.03 mmol/kg i.v., rabbits
# [44] = Renal Cortex, 15 min after 0.08 mmol/kg i.v., rabbits
# [45] = Renal Cortex, 15 min after 0.10 mmol/kg i.v., 1 rabbit
# [46] = Renal Medulla, 15 min after 0.01 mmol/kg i.v., rabbits
# [47] = Renal Medulla, 15 min after 0.03 mmol/kg i.v., rabbits
# [48] = Renal Medulla, 15 min after 0.08 mmol/kg i.v., rabbits
# [49] = Renal Medulla, 15 min after 0.10 mmol/kg i.v., 1 rabbit
# [50] = Skeletal Muscle, 15 min after 0.01 mmol/kg i.v., rabbits
# [51] = Skeletal Muscle, 15 min after 0.03 mmol/kg i.v., rabbits
# [52] = Skeletal Muscle, 15 min after 0.08 mmol/kg i.v., rabbits
# [53] = Skeletal Muscle, 15 min after 0.10 mmol/kg i.v., 1 rabbit
# [54] = Small Intestine, 15 min after 0.01 mmol/kg i.v., rabbits
# [55] = Small Intestine, 15 min after 0.03 mmol/kg i.v., rabbits
# [56] = Small Intestine, 15 min after 0.08 mmol/kg i.v., rabbits
# [57] = Small Intestine, 15 min after 0.10 mmol/kg i.v., 1 rabbit
# [58] = Small Intestine, rabbits, 15 min
# [59] = Spleen, 15 min after 0.01 mmol/kg i.v., rabbits
# [60] = Spleen, 15 min after 0.03 mmol/kg i.v., rabbits
# [61] = Spleen, 15 min after 0.08 mmol/kg i.v., rabbits
# [62] = Spleen, 15 min after 0.10 mmol/kg i.v., 1 rabbit
# [63] = Stomach, 15 min after 0.01 mmol/kg i.v., rabbits
# [64] = Stomach, 15 min after 0.03 mmol/kg i.v., rabbits
# [65] = Stomach, 15 min after 0.08 mmol/kg i.v., rabbits
# [66] = Stomach, 15 min after 0.10 mmol/kg i.v., 1 rabbit
structure (smiles),measurement,setting,value
Cc1cccc(C)c1NC(=O)CN(CC(=O)[O-])CC(=O)O.Cc1cccc(C)c1NC(=O)CN(CC(=O)[O-])CC(=O)O.O.O.O.[Mn+2] [Example 2],effect on tissue T1 relaxation times,[1],dose-related decrease
same,effect on tissue T2 relaxation times,[1],minimally affected
same,T1 relaxation time,[2],380 ms
same,T2 relaxation time,[2],84 ms
same,T1 relaxation time,[3],312 ms
same,T2 relaxation time,[3],68 ms
same,T1 relaxation time,[4],173 ms
same,T2 relaxation time,[4],60 ms
same,T1 relaxation time,[5],159 ms
same,T2 relaxation time,[5],61 ms
same,"Approximate ED50, intravenous dose to reduce tissue T1 by 50%","Bladder, rabbits, 15 min",0.060 mmol/kg
same,"Approximate ED50, intravenous dose to reduce tissue T2 by 50%","Bladder, rabbits, 15 min",0.51 mmol/kg
same,T1 relaxation time,[6],554 ms
same,T2 relaxation time,[6],161 ms
same,T1 relaxation time,[7],192 ms
same,T2 relaxation time,[7],110 ms
same,T1 relaxation time,[8],70 ms
same,T2 relaxation time,[8],56 ms
same,T1 relaxation time,[9],64 ms
same,T2 relaxation time,[9],55 ms
same,T1 relaxation time,[10],604 ms
same,T2 relaxation time,[10],165 ms
same,T1 relaxation time,[11],283 ms
same,T2 relaxation time,[11],119 ms
same,T1 relaxation time,[12],96 ms
same,T2 relaxation time,[12],72 ms
same,T1 relaxation time,[13],398 ms
same,T2 relaxation time,[13],179 ms
same,T1 relaxation time,[14],639 ms
same,T2 relaxation time,[14],171 ms
same,T1 relaxation time,[15],368 ms
same,T2 relaxation time,[15],141 ms
same,T1 relaxation time,[16],115 ms
same,T2 relaxation time,[16],82 ms
same,T1 relaxation time,[17],148 ms
same,T2 relaxation time,[17],129 ms
same,T1 relaxation time,[18],136 ms
same,T2 relaxation time,[18],122 ms
same,T1 relaxation time,[19],125 ms
same,T2 relaxation time,[19],122 ms
same,T1 relaxation time,[20],122 ms
same,T2 relaxation time,[20],89 ms
same,"Approximate ED50, intravenous dose to reduce tissue T1 by 50%","Fat, rabbits, 15 min",11.94 mmol/kg
same,T1 relaxation time,[21],370 ms
same,T2 relaxation time,[21],64 ms
same,T1 relaxation time,[22],222 ms
same,T2 relaxation time,[22],56 ms
same,T1 relaxation time,[23],104 ms
same,T2 relaxation time,[23],43 ms
same,T1 relaxation time,[24],84 ms
same,T2 relaxation time,[24],39 ms
same,"Approximate ED50, intravenous dose to reduce tissue T1 by 50%","Heart, rabbits, 15 min",0.037 mmol/kg
same,"Approximate ED50, intravenous dose to reduce tissue T2 by 50%","Heart, rabbits, 15 min",0.38 mmol/kg
same,T1 relaxation time,[25],245 ms
same,T2 relaxation time,[25],65 ms
same,T1 relaxation time,[26],155 ms
same,T2 relaxation time,[26],52 ms
same,T1 relaxation time,[27],123 ms
same,T2 relaxation time,[27],43 ms
same,T1 relaxation time,[28],166 ms
same,T2 relaxation time,[28],53 ms
same,"Approximate ED50, intravenous dose to reduce tissue T1 by 50%",[29],0.050 mmol/kg
same,"Approximate ED50, intravenous dose to reduce tissue T2 by 50%",[29],0.19 mmol/kg
same,T1 relaxation time,[30],92 ms
same,T2 relaxation time,[30],41 ms
same,T1 relaxation time,[31],49 ms
same,T2 relaxation time,[31],25 ms
same,T1 relaxation time,[32],28 ms
same,T2 relaxation time,[32],18 ms
same,T1 relaxation time,[33],143 ms
same,T2 relaxation time,[33],87 ms
same,"Approximate ED50, intravenous dose to reduce tissue T2 by 50%","Liver, rabbits, 15 min",0.04 mmol/kg
same,"Approximate ED50, intravenous dose to reduce tissue T1 by 50%","Liver, rabbits, 15 min, listed as Dihydrogen Bis(N-[N′-(2,6-dimethylphenyl)carbamoylmethyl]iminodiaceto)manganese(, Trihydrate)",0.0067 mmol/kg
same,"Approximate ED50, intravenous dose to reduce tissue T1 by 50%","Liver, rabbits, 15 min, listed as dihydrogen bis(N-[N′-(2,6-dimethylphenyl)carbamoylmethyl]-iminodiaceto)manganese, Trihydrate",less than 0.01 mmol/kg
same,T1 relaxation time,[34],464 ms
same,T2 relaxation time,[34],91 ms
same,T1 relaxation time,[35],352 ms
same,T2 relaxation time,[35],100 ms
same,T1 relaxation time,[36],222 ms
same,T2 relaxation time,[36],67 ms
same,T1 relaxation time,[37],144 ms
same,T2 relaxation time,[37],62 ms
same,"Approximate ED50, intravenous dose to reduce tissue T1 by 50%","Lung, rabbits, 15 min",0.075 mmol/kg
same,"Approximate ED50, intravenous dose to reduce tissue T2 by 50%","Lung, rabbits, 15 min",0.15 mmol/kg
same,T1 relaxation time,[38],225 ms
same,T2 relaxation time,[38],66 ms
same,T1 relaxation time,[39],104 ms
same,T2 relaxation time,[39],118 ms
same,T1 relaxation time,[40],101 ms
same,T2 relaxation time,[40],70 ms
same,T1 relaxation time,[41],149 ms
same,T2 relaxation time,[41],69 ms
same,"Approximate ED50, intravenous dose to reduce tissue T1 by 50%","Pancreas, rabbits, 15 min",0.064 mmol/kg
same,T1 relaxation time,[42],236 ms
same,T2 relaxation time,[42],77 ms
same,T1 relaxation time,[43],164 ms
same,T2 relaxation time,[43],63 ms
same,T1 relaxation time,[44],77 ms
same,T2 relaxation time,[44],42 ms
same,T1 relaxation time,[45],71 ms
same,T2 relaxation time,[45],37 ms
same,T1 relaxation time,[46],435 ms
same,T2 relaxation time,[46],122 ms
same,T1 relaxation time,[47],218 ms
same,T2 relaxation time,[47],95 ms
same,T1 relaxation time,[48],124 ms
same,T2 relaxation time,[48],74 ms
same,T1 relaxation time,[49],35 ms
same,T2 relaxation time,[49],21 ms
same,"Approximate ED50, intravenous dose to reduce tissue T1 by 50%","Renal cortex, rabbits, 15 min",0.041 mmol/kg
same,"Approximate ED50, intravenous dose to reduce tissue T2 by 50%","Renal cortex, rabbits, 15 min",0.14 mmol/kg
same,"Approximate ED50, intravenous dose to reduce tissue T1 by 50%","Renal medulla, rabbits, 15 min",0.030 mmol/kg
same,"Approximate ED50, intravenous dose to reduce tissue T2 by 50%","Renal medulla, rabbits, 15 min",0.90 mmol/kg
same,T1 relaxation time,[50],364 ms
same,T2 relaxation time,[50],35 ms
same,T1 relaxation time,[51],304 ms
same,T2 relaxation time,[51],38 ms
same,T1 relaxation time,[52],255 ms
same,T2 relaxation time,[52],39 ms
same,T1 relaxation time,[53],205 ms
same,T2 relaxation time,[53],38 ms
same,"Approximate ED50, intravenous dose to reduce tissue T1 by 50%","Skeletal muscle, rabbits, 15 min",0.35 mmol/kg
same,T1 relaxation time,[54],219 ms
same,T2 relaxation time,[54],73 ms
same,T1 relaxation time,[55],150 ms
same,T2 relaxation time,[55],60 ms
same,T1 relaxation time,[56],130 ms
same,T2 relaxation time,[56],50 ms
same,T1 relaxation time,[57],141 ms
same,T2 relaxation time,[57],45 ms
same,"Approximate ED50, intravenous dose to reduce tissue T1 by 50%",[58],0.051 mmol/kg
same,"Approximate ED50, intravenous dose to reduce tissue T2 by 50%",[58],0.27 mmol/kg
same,T1 relaxation time,[59],346 ms
same,T2 relaxation time,[59],73 ms
same,T1 relaxation time,[60],260 ms
same,T2 relaxation time,[60],70 ms
same,T1 relaxation time,[61],195 ms
same,T2 relaxation time,[61],65 ms
same,T1 relaxation time,[62],202 ms
same,T2 relaxation time,[62],71 ms
same,"Approximate ED50, intravenous dose to reduce tissue T1 by 50%","Spleen, rabbits, 15 min",0.085 mmol/kg
same,T1 relaxation time,[63],287 ms
same,T2 relaxation time,[63],56 ms
same,T1 relaxation time,[64],199 ms
same,T2 relaxation time,[64],53 ms
same,T1 relaxation time,[65],122 ms
same,T2 relaxation time,[65],43 ms
same,T1 relaxation time,[66],121 ms
same,T2 relaxation time,[66],47 ms
same,"Approximate ED50, intravenous dose to reduce tissue T1 by 50%","Stomach, rabbits, 15 min",0.068 mmol/kg
same,"Approximate ED50, intravenous dose to reduce tissue T2 by 50%","Stomach, rabbits, 15 min",0.93 mmol/kg
same,effect on hepatic and biliary T1 relaxation times,"listed as dihydrogen bis(N-[N′-(2,6-dimethylphenyl)carbamoylmethyl]-iminodiaceto)manganese, Trihydrate",dramatically reduced
same,effect on hepatic and biliary T1 relaxation times,"listed as dihydrogen bis(N-[N′-(2,6-dimethylphenyl)carbamoylmethyl]iminodiaceto)-manganese, Trihydrate",dramatically reduces hepatic and biliary T1 relaxation times

# — patent US6797255B1, “Methods and compositions for enhancing magnetic resonance imaging” (Mallinckrodt Inc., priority 1985, dated 2004)
